Reference: patent US7820716B2 (Mai De Ltd, priority 2007, dated 2010)

Experiments:
[1] = Stability study of bulk material, stability-indicating HPLC; type: physicochemical
Method: Changes are monitored using a stability-indicating HPLC method. Results were calculated by normalized peak area (npa). Degradants are identified by comparison of their relative retention times against impurity standards.

serotonin uptake = conditions: background statement; cited from earlier work
norepinephrine uptake = conditions: background statement; cited from earlier work

| Molecule | polymorph and chemical stability demonstrated ([1]; elevated temperatures and humidity (40° C./75%)) [months] | polymorph stability and formation of known and unknown degradants ([1]; stored for over 3 to 6 months under normal conditions of temperature and humidity) | serotonin uptake (serotonin uptake) | norepinephrine uptake (norepinephrine uptake) |
| --- | --- | --- | --- | --- |
| (1-[2-(dimethylamino)-1-(4-phenol)ethyl]-cyclohexanol succinate [Form V] | 2 | stable |  |  |
| CN(C)CC(c1ccc(O)cc1)C1(O)CCCCC1 (stereo not shown) [O-desmethyl venlafaxine] |  |  | inhibit | inhibit |
